The test system of assay [1] is Leishmania infantum promastigote forms. The assay can be described thus: Promastigote test (extracellular forms), L. infantum. It counts as cell-based. To be noted: 72 h; 100 µM to 1 µM; mean ± SD of four determinations. Here is the method:
(§1) Promastigote forms of three different Leishmania spp., L. donovani (MHOM/PE/84/LC26), L. infantum (MCAN/ES/2001/UCM-10) and L. braziliensis (MHOM/BR/1975/M2904), were cultured in vitro in Medium Trypanosomes Liquid (MTL) supplemented with 10% inactivated foetal calf serum (FCS) in an air atmosphere at 28 °C, in Roux flasks (Corning, Manassas, VA, USA) with a surface area of 75 cm^2, according to [33].
(§2) The compounds and the reference drug Glu were dissolved in DMSO (Panreac, Barcelona, Spain) and tested from 100 µM to 1 µM with 0.1% (v/v) DMSO final concentration in plates. Therefore, controls were prepared including 0.1% (v/v) of this component, as previously described.
(§3) Promastigote forms were collected in the exponential growth phase and seeded at 1 × 10^5 parasites/mL in 24-well microplates (Nunc, Naperville, IL, USA), after adding each compound at concentrations from 100 µM to 1 µM and cultured in 500 μL/well volumes at 28 °C. After 72 h incubation, the leishmanicidal activity was assessed using a Neubauer haemocytometric chamber in comparison with the control cultures. […] Each drug concentration was tested in triplicate in four separate determinations.

Assay [2] deals with Leishmania infantum amastigote forms. The assay can be described thus: Amastigote test (intracellular forms in J774.2 macrophages), L. infantum. To be noted: 72 h, mean ± SD. Type of assay: cell-based. How it is done:
as §1, §2
(§4) J774.2 macrophages were grown and seeded at a density of 1 × 10^4 cells/well in 24-well microplates (Nunc) with rounded coverslips on the bottom and cultured for 48 h in humidified 95% air, 5% CO2 atmosphere at 37 °C in Minimal Essential Medium (MEM) with 2 mM glutamine and 20% (v/v) inactivated FCS. Adherent macrophages were infected with metacyclic promastigotes in the stationary growth phase of L. donovani, L. infantum and L. braziliensis at a multiplicity of infection (MOI) ratio of 1:10 and maintained for 24 h. Non-phagocytosed parasites were removed by washing, and after addition of the testing compounds at concentrations from 100 µM to 1 µM, cultured in 500 μL/well volumes. Control cultures were also included. After 72 h incubation, leishmanicidal activity was assessed based on the number of amastigotes in treated and untreated cultures in methanol-fixed and Giemsa-stained preparations by analyzing 500 host cells distributed in randomly chosen microscopic fields. The leishmanicidal effect was calculated as described to determine the leishmanicidal activity in the promastigote forms. Each drug concentration was tested in triplicate in four separate determinations.

Assay [3] deals with Leishmania braziliensis promastigote forms. The assay can be described thus: Promastigote test (extracellular forms), L. braziliensis. Type of assay: cell-based. To be noted: 72 h; 100 µM to 1 µM; mean ± SD. Here is the method:
as §1, §2, §3

In assay [4] the test system is Leishmania braziliensis amastigote forms. The assay can be described thus: Amastigote test (intracellular forms in J774.2 macrophages), L. braziliensis. It counts as cell-based. To be noted: 72 h, mean ± SD. Here is the method: as §1, §2, §4
The test system of assay [5] is Leishmania donovani promastigote forms. The assay can be described thus: Promastigote test (extracellular forms), L. donovani. To be noted: 72 h; 100 µM to 1 µM; mean ± SD. Type of assay: cell-based. How it is done: as §1, §2, §3
Assay [6] relates to Leishmania donovani amastigote forms. The assay can be described thus: Amastigote test (intracellular forms in J774.2 macrophages), L. donovani. Type of assay: cell-based. To be noted: 72 h, mean ± SD. Here is the method:
as §1, §2, §4

In assay [7] the test system is J774.2 murine macrophages. As to the kind of experiment: Cytotoxicity test on macrophages by flow cytometry. Type of assay: cell-based, mouse. To be noted: J774.2 macrophages, 72 h, read-out: Toxicity IC50 Macrophage. Here is the method: as §2
The macrophage line J774.2 [European collection of cell cultures (ECACC) number 91051511] was derived in 1968 from a tumour in a female BALB/c mouse. Macrophages were grown in humidified 95% air, 5% CO2 atmosphere at 37 °C in Minimal Essential Medium (MEM) with 2 mM glutamine and 20% (v/v) inactivated FCS. The cytotoxicity test on macrophages was performed by Flow cytometry analysis according to a method previously described. Briefly, cells were seeded at a density of 5 × 10^4 cells/well in 24-well microplates (Nunc, Naperville, IL, USA). After 48 h incubation, the medium was removed, and fresh medium was added together with each test compound at concentrations from 100 µM to 1 µM and cultured in 500 μL/well volumes for 72 h. Thereafter, cells were recovered by centrifugation, and cell viability was determined by Flow cytometry (FACS Vantage flow cytometer, Becton Dickinson, San Jose, CA, USA) after incubating the cells with propidium iodide ([…]) and fluorescein diacetate (100 ng/mL). The percentage of viability was calculated in comparison with the control cultures. […] Each drug concentration was tested in triplicate in four separate determinations.
(In flow cytometry, cells or beads pass a laser one at a time.)

A further assay has as its target T1, human CuZn-SOD (Homo sapiens, UniProt P00441).
T1 construct: purchased Sigma Chemical Co. (St. Louis, MO, USA)
The assay can be described thus: SOD inhibition assay, human CuZn-SOD. It counts as biochemical. To be noted: assayed 100 µM to 0.1 µM; non-linear regression. Here is the method: The previous extraordinary results prompted us to evaluate the inhibitory effect of 3, 5–8 and 10 on the SOD activity. […]
(§5) Parasite cells were collected in the exponential growth phase by centrifugation (400g for 10 min). The pellet obtained after centrifugation was lysated by sonication, processed according to [38] and obtained the homogenate fraction which contained the parasite Fe-SOD. The protein content was quantified using the Sigma Bradford test, which uses BSA as a standard (no trace ability was certified for the BSA standard). Superoxide dismutase activities were determined using a method previously described, which measures the reduction in nitrobluetetrazolium (NBT) by superoxide ions. Human CuZn-SOD. Substrates used in these assays were obtained from Sigma Chemical Co. (St. Louis, MO, USA). Resulting data were analysed using the Newman−Keuls test.

The test system of the next assay is parasitic Fe-SOD. The assay can be described thus: SOD inhibition assay, parasitic Fe-SOD of the Leishmania spp. taken together. It counts as biochemical. How it is done: The previous extraordinary results prompted us to evaluate the inhibitory effect of 3, 5–8 and 10 on the SOD activity. […] We used promastigotes of Leishmania spp. to obtain Fe-SOD by cellular disruption and precipitation and assayed the compounds at concentrations ranging from 100 µM to 0.1 µM in each case.
as §5

The test system of assay [8] is L. infantum promastigotes. The assay can be described thus: Metabolite excretion by 1H-NMR, L. infantum. It counts as cell-based, Leishmania infantum. To be noted: IC25 concentration, 72 h, vs untreated. Here is the method:
Trypanosomatids catabolizes glucose at a high rate, excreting into the medium partly oxidized end products such as acetate, succinate, L-alanine or L-lactate.
Cultures of L. donovani, L. infantum and L. braziliensis promastigotes were seeded in culture flaks at 5 × 10^5 cells/mL, and after the addition of the compounds at IC25 concentrations at 28 °C. Control cultures were also included. After 72 h of incubation, parasites were centrifuged at 400 × g for 10 min, and supernatants were collected in order to determine the excreted metabolites by ^1H-NMR. Chemical shifts were expressed in parts per million (ppm) using sodium 2,2-dimethyl-2-silapentane-5-sulphonate as the reference signal. The One-dimensional ^1H-NMR spectra were acquired with a VARIAN DIRECT DRIVE 400 MHz Bruker spectrometer (Rheinstetten, Germany) with an AutoX probe using D2O as solvent. The chemical shifts used to identify the respective metabolites were consistent with those described previously by some of the authors. The spectral region of 1.0–5.5 ppm was bucketed into a frequency window of 0.1 ppm. The peak (2.6 ppm) corresponding to DMSO was removed before binning, and the regions corresponding to water (4.5–5.5 ppm) and glucose (3.4–3.8 ppm) were excluded during binning to avoid artefacts due to pre-saturation. […]

The test system of assay [9] is L. braziliensis promastigotes. As to the kind of experiment: Ultrastructural alterations by TEM, L. braziliensis. To be noted: 72 h at IC25 concentration. It counts as cell-based, Leishmania braziliensis. How it is done:
(§6) Parasites were cultured at a density of 5 × 10^5 cells/mL with medium containing the tested compounds at IC25 concentrations. After 72 h at 28 °C, the cultures were processed using a technique previously described and analysed by TEM (LIBRA 120 PLUS, Zeiss, Barcelona, Spain).

In assay [10] the test system is L. infantum promastigotes. The assay can be described thus: Ultrastructural alterations by TEM, L. infantum. Type of assay: cell-based, Leishmania infantum. To be noted: 72 h at IC25 concentration. Here is the method:
as §6

T1 sequence (P00441 whole entry): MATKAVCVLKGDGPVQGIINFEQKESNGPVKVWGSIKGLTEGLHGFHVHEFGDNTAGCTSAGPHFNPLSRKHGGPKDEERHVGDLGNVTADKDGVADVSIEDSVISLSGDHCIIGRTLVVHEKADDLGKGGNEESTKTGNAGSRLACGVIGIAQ

`CN1CCN(C)CCN(Cc2ccccn2)CC1.O=S(=O)([O-])C(F)(F)F.O=S(=O)([O-])C(F)(F)F.[Mn+2]` [Compound 3]: the IC50 (in general, the concentration that gives 50% inhibition) in [1] turned out to be 8.5 ± 0.4 µM; in [2], 3.7 ± 1.6 µM; in assay [3], 9.3 ± 0.3 µM; in assay [4] it was 8.7 ± 0.6 µM; in [5] it was 28.6 ± 3.5 µM; in assay [6], 11.7 ± 1.3 µM. The IC50 in assay [7] was 98.5 ± 6.3 µM; on human CuZn-SOD it was above 100 µM; in the assay with parasitic Fe-SOD, above 100 µM. Moreover, in assay [8], the “Excretion variation ACETATE, L. infantum” value is 18%. Moreover, the “Excretion variation SUCCINATE, L. infantum” value in assay [8] is listed as 32%. In assay [9], the “ultrastructural alterations of L. braziliensis promastigotes (TEM)” value was “completely swollen, round and full of empty or lipid vacuoles”. For the same molecule, the “ultrastructural alterations of L. infantum promastigotes (TEM)” value in assay [10] is listed as “induced agglutination in the parasites”.

The values above are taken from publication PMC6337631, “Effective Tetradentate Compound Complexes against Leishmania spp. that Act on Critical Enzymatic Pathways of These Parasites” (Molecules, 2018).
